Measurements taken from patent US20250382302A1, “Anticancer polyheterocyclic compounds and associated methods” (University of Denver, priority 2024, published 2025).

Assays:
EKVX = assay: NCI five-dose testing, EKVX; format: cell-based; conditions: Non-Small Cell Lung Cancer
SK-MEL-5 = assay: NCI five-dose testing, SK-MEL-5; format: cell-based; conditions: Melanoma
IGROV1 = assay: NCI five-dose testing, IGROV1; format: cell-based
RXF 393 = assay: NCI five-dose testing, RXF 393; format: cell-based; conditions: Renal Cancer
MCF7 = assay: NCI five-dose testing, MCF7; conditions: for TGI: Breast Cancer; for TGI / GI50: MCF7; for GI50 / CC50: Homo sapiens; for CC50: MCF7, read-out: LC50
MDA-MB-468 = assay: NCI five-dose testing, MDA-MB-468; conditions: for TGI: Breast Cancer; for TGI / GI50: MDA-MB-468; for GI50 / CC50: Homo sapiens; for CC50: MDA-MB-468, read-out: LC50
SR = assay: NCI five-dose testing, SR
RPMI-8226 = assay: NCI five-dose testing, RPMI-8226; conditions: for GI50 / CC50: Homo sapiens; for GI50 / TGI: RPMI-8226; for CC50: RPMI-8226, read-out: LC50; for TGI: Leukemia
NCI-H23 [1] = conditions: Non-Small Cell Lung Cancer
KM12 [2] = conditions: Colon Cancer
SNB-75 [3] = conditions: CNS Cancer
UACC-62 [4] = conditions: Melanoma
OVCAR-8 [5] = conditions: Ovarian Cancer
ACHN [6] = conditions: Renal Cancer
UO-31 [7] = conditions: Renal Cancer
NCI-H23 [8] = assay: cells; conditions: Homo sapiens
KM12 [9] = assay: cells; conditions: Homo sapiens
SNB-75 [10] = assay: cells; conditions: Homo sapiens
UACC-62 [11] = assay: cells; conditions: Homo sapiens
OVCAR-8 [12] = assay: cells; conditions: Homo sapiens
ACHN [13] = assay: cells; conditions: Homo sapiens
UO-31 [14] = assay: cells; conditions: Homo sapiens
T-47D = assay: NCI five-dose testing, T-47D
MOLT-4 = assay: NCI five-dose testing, MOLT-4
OVCAR-3 = assay: NCI five-dose testing, OVCAR-3
OVCAR-4 = assay: NCI five-dose testing, OVCAR-4
CCRF-CEM = assay: NCI five-dose testing, CCRF-CEM
NCI-H522 = assay: NCI five-dose testing, NCI-H522
HL-60(TB) = assay: NCI five-dose testing, HL-60(TB)
[15] = Homo sapiens, read-out: LC50 (the source's name)

## COC1=CC2C3=C(C(=O)c4ccccc4C3=O)N3C(=O)C(=O)N(Cc4ccsc4)[C@]23C=C1 (stereo partly drawn)
EKVX; Homo sapiens
  GI50: 1.11 µM
EKVX; [15]
  CC50: 25.7 µM
EKVX
  TGI: 5.75 × 10^−6
SK-MEL-5; Homo sapiens
  GI50: 0.01 µM
SK-MEL-5; [15]
  CC50: 6.04 µM
SK-MEL-5
  TGI: 2.16 × 10^−6
IGROV1; Homo sapiens, IGROV-1, Ovarian Cancer
  GI50: 1.27 µM
IGROV1; Homo sapiens, IGROV-1, Ovarian Cancer, read-out: LC50 (the source's name)
  CC50: 70.5 µM
IGROV1; Ovarian Cancer
  TGI: 1.40 × 10^−5
RXF 393; Homo sapiens
  GI50: 1.43 µM
RXF 393; [15]
  CC50: 9.92 µM
RXF 393
  TGI: 3.76 × 10^−6
MCF7
  TGI: 5.88 × 10^−6
  GI50: 1.26 µM
  CC50: 25.2 µM
MDA-MB-468
  TGI: 8.16 × 10^−7
  GI50: 0.113 µM
  CC50: 9.32 µM

## COC1=C[C@H]2[C@H]3C[C@@H]1CN1C(=O)C(=O)N4C5=C(C(=O)c6ccccc6C5=O)[C@]3(OC)[C@]214
SR; Homo sapiens
  GI50: 1.4 µM
SR; Homo sapiens, read-out: LC50
  CC50: 5.31 µM
SR; Leukemia
  TGI: 2.72 × 10^−6
MCF7
  TGI: 2.94 × 10^−6
  GI50: 0.921 µM
  CC50: 8.87 µM
RPMI-8226
  GI50: 0.803 µM
  CC50: 4.71 µM
  TGI: 2.05 × 10^−6

## C=CCN(C(=O)C(=O)NC1=CC(=O)c2ccccc2C1=O)c1c(OC)cccc1OC
NCI-H23 [1]
  TGI: 2.79 × 10^−6
KM12 [2]
  TGI: 2.28 × 10^−6
SNB-75 [3]
  TGI: 2.93 × 10^−6
UACC-62 [4]
  TGI: 2.81 × 10^−6
OVCAR-8 [5]
  TGI: 2.70 × 10^−6
ACHN [6]
  TGI: 2.66 × 10^−6
UO-31 [7]
  TGI: 2.76 × 10^−6
NCI-H23 [8]; NCI-H23
  GI50: 1.44 µM
NCI-H23 [8]; NCI-H23, read-out: LC50
  CC50: 5.39 µM
KM12 [9]; KM12
  GI50: 0.626 µM
KM12 [9]; KM12, read-out: LC50
  CC50: 6.39 µM
SNB-75 [10]; SNB-75
  GI50: 1.43 µM
SNB-75 [10]; SNB-75, read-out: LC50
  CC50: 5.99 µM
UACC-62 [11]; UACC-62
  GI50: 1.48 µM
UACC-62 [11]; UACC-62, read-out: LC50
  CC50: 5.35 µM
OVCAR-8 [12]; OVCAR-8
  GI50: 1.36 µM
OVCAR-8 [12]; OVCAR-8, read-out: LC50
  CC50: 5.36 µM
ACHN [13]
  GI50: 1.35 µM
ACHN [13]; read-out: LC50
  CC50: 5.21 µM
UO-31 [14]; UO-31
  GI50: 1.44 µM
UO-31 [14]; UO-31, read-out: LC50
  CC50: 5.31 µM
MCF7
  TGI: 2.78 × 10^−6
  GI50: 1.45 µM
  CC50: 5.32 µM
T-47D; Breast Cancer, T-47D
  TGI: 2.81 × 10^−6
T-47D; Homo sapiens, T47D
  GI50: 1.48 µM
T-47D; Homo sapiens, T47D, read-out: LC50
  CC50: 5.33 µM
MOLT-4; Homo sapiens, MOLT-4
  GI50: 0.441 µM
MOLT-4; Homo sapiens, MOLT-4, read-out: LC50
  CC50: 4.04 µM
MOLT-4; Leukemia, MOLT-4
  TGI: 1.62 × 10^−6
OVCAR-3; Homo sapiens, OVCAR-3
  GI50: 1.03 µM
OVCAR-3; Homo sapiens, OVCAR-3, read-out: LC50
  CC50: 4.73 µM
OVCAR-3; Ovarian Cancer, OVCAR-3
  TGI: 2.21 × 10^−6
OVCAR-4; Homo sapiens, OVCAR-4
  GI50: 1.22 µM
OVCAR-4; Homo sapiens, OVCAR-4, read-out: LC50
  CC50: 4.98 µM
OVCAR-4; Ovarian Cancer, OVCAR-4
  TGI: 2.46 × 10^−6
CCRF-CEM; Homo sapiens
  GI50: 0.781 µM
CCRF-CEM; Homo sapiens, read-out: LC50
  CC50: 4.55 µM
CCRF-CEM; Leukemia
  TGI: 2.04 × 10^−6
NCI-H522; Homo sapiens, NCI-H522
  GI50: 1.25 µM
NCI-H522; Homo sapiens, NCI-H522, read-out: LC50
  CC50: 5.03 µM
NCI-H522; Non-Small Cell Lung Cancer, NCI-H522
  TGI: 2.51 × 10^−6
HL-60(TB); Homo sapiens, HL-60
  GI50: 0.249 µM
HL-60(TB); Homo sapiens, HL-60, read-out: LC50
  CC50: 1.52 µM
HL-60(TB); Leukemia, HL-60(TB)
  TGI: 5.42 × 10^−7
RPMI-8226
  GI50: 1.04 µM
  CC50: 4.74 µM
  TGI: 2.22 × 10^−6
MDA-MB-468
  TGI: 8.97 × 10^−7
  GI50: 0.275 µM
  CC50: 3 µM
